Where a name gives a salt, the structure may show the parent alone.
Assay: Related substance testing by HPLC on interaction samples after storage
Format: physicochemical
[1] = 40/75: incubator 40° C./75% RH for 6 days

Experimental: The APIs alone and two initial, conventional finished dosage forms were analysed under three different storage conditions, ie. cold room storage, kept in an oven at 60° C. for 7 days and stored in an incubator held at 40° C./75% RH for 6 days. The mixtures of one or both APIs with an excipient were analysed under two different storage conditions, ie. kept in an oven at 60° C. for 7 days and stored in an incubator held at 40° C./75% RH for 6 days.
The list of samples are as follows: • Fluoxetine HCl alone • Olanzapine alone • Fluoxetine HCl/Olanzapine Capsules • Fluoxetine HCl+Microcrystalline cellulose • Fluoxetine HCl+Pregelatinised maize starch • Fluoxetine HCl+Maize starch • Fluoxetine HCl+Magnesium stearate • Fluoxetine HCl+Olanzapine • Fluoxetine HCl+Olanzapine+Microcrystalline cellulose • Fluoxetine HCl+Olanzapine+Pregelatinised maize starch • Fluoxetine HCl+Olanzapine+Maize starch • Fluoxetine HCl+Olanzapine+Magnesium stearate • Olanzapine Tablets • Olanzapine+Lactose monohydrate • Olanzapine+Microcrystalline cellulose • Olanzapine+Maize starch • Olanzapine+Pregelatinised maize starch • Olanzapine+Crospovidone • Olanzapine+Magnesium stearate • Olanzapine+Opadry® II coating ingredients
The samples were analysed after the allotted period of time and the level of known and unknown related substances were determined by HPLC.

Q: For `CNCCC(Oc1ccc(C(F)(F)F)cc1)c1ccccc1` (stereo not drawn) [Fluox API, Fluoxetine HCl], which “Impurity 1 (unknown related substance)” value [1] is on record?
A: Its value is 0.041.

Q: And the “Impurity 2 (unknown related substance)” value [1]?
A: Its value is 0.069.

Q: What about the “Impurity 1 (unknown related substance)” value (CR: cold room storage) of the same molecule?
A: Its value is 0.034.

Q: And the “Impurity 2 (unknown related substance)” value (CR: cold room storage)?
A: Its value is 0.068.

Q: And the “Impurity 1 (unknown related substance)” value (Oven: 60° C. for 7 days)?
A: Its value is 0.039.

Q: And the “Impurity 2 (unknown related substance)” value (Oven: 60° C. for 7 days)?
A: Its value is 0.067.

— patent US20100092549A1, “Dosage Form Containing Two or More Active Pharmaceutical Ingredients in Different Physical Forms” (priority 2007, published 2010)
